Data reported in the PolyMetriX glass transition set.

| Compound | glass transition temperature [°C] |
| --- | --- |
| *C(=O)Nc1ccc(Oc2ccc(Oc3ccc(NC(=O)c4ccc5c(c4)C(=O)N(c4ccc(Oc6ccc(C7(c8ccc(Oc9ccc(N%10C(=O)c%11ccc(*)cc%11C%10=O)cc9)cc8)CC8CC7C7CCCC87)cc6)cc4)C5=O)cc3)c(C(C)(C)C)c2)cc1 (repeat unit) | 275.00 |
| *C(=O)Nc1ccc(Oc2cccc(Oc3ccc(NC(=O)c4ccc5c(c4)C(=O)N(c4ccc(Oc6cccc(Oc7ccc(N8C(=O)c9ccc(*)cc9C8=O)cc7)c6C#N)cc4)C5=O)cc3)c2C#N)cc1 (repeat unit) | 220.00 |
| *C(=O)Oc1ccc(OC(=O)c2ccc3c(c2)C(=O)N(C2CCC(N4C(=O)c5ccc(*)cc5C4=O)CC2)C3=O)cc1 (repeat unit) | 360.00 |
| *C(=S)Nc1ccc(Oc2ccc(NC(=S)N3C(=O)c4ccc(C(=O)c5ccc6c(c5)C(=O)N(*)C6=O)cc4C3=O)cc2)cc1 (repeat unit) | 262.00 |
| *CCCCCCCCCCOc1ccc(OC(=O)c2ccc(OCCOCCOCCOc3ccc(C(=O)Oc4ccc(O*)cc4)cc3)cc2)cc1 (repeat unit) | 64.00 |
| *CCCCCCOc1ccc(OC(=O)c2ccc(C(=O)Oc3ccc(O*)cc3)cc2)cc1 (repeat unit) | 53.00 |
| *CCCCCOc1ccc(OC(=O)c2ccc(C(=O)Oc3ccc(O*)cc3)cc2)cc1 (repeat unit) | 112.00 |
| *CCCOCCCCOCCCN1C(=O)c2ccc(C(=O)Oc3ccc(OC(=O)c4ccc5c(c4)C(=O)N(*)C5=O)c(-c4ccccc4)c3)cc2C1=O (repeat unit) | 71.00 |
| *CCOCCOCCN1C(=O)c2ccc(C(=O)Oc3ccc(OC(=O)c4ccc5c(c4)C(=O)N(*)C5=O)cc3)cc2C1=O (repeat unit) | 105.00 |
| *OP(=O)(Oc1ccccc1)Oc1ccc(*)cc1 (repeat unit) | 97.00 |
| *OS(=O)(=O)c1ccc(*)cc1 (repeat unit) | 119.00 |
| *O[Si](C)(C)CCCCCCOC(=O)C(C)Oc1ccc(OC(=O)c2ccc(-c3ccc(OCCCCCCCCCC[Si](*)(C)C)cc3)cc2)cc1 (repeat unit) | 35.00 |
| *O[Si](C)(C)CCCCCCOC(=O)C(C)Oc1ccc(OC(=O)c2ccc(-c3ccc(OCCCCCCCCCC[Si](*)(C)C)cc3)cc2)cc1[N+](=O)[O-] (repeat unit) | 20.00 |
| *Oc1c(C)c(C)c(NC(=O)c2ccc(C(=O)Nc3ccc(*)cc3)cc2)c(C)c1C (repeat unit) | 333.00 |
| *Oc1cc(C(=O)c2ccccc2)c(Oc2ccc(*)cc2)cc1C(=O)c1ccccc1 (repeat unit) | 137.00 |
| *Oc1ccc(C(=O)c2ccc(Oc3ccc(C(=O)c4ccc(Oc5cccc(Cc6cccc(*)c6)c5)cc4)cc3)cc2)cc1 (repeat unit) | 123.00 |
| *Oc1ccc(OC(=O)c2cc(OCCCCCCCCCCC(F)(F)C(F)(F)C(F)(F)C(F)(F)C(F)(F)C(F)(F)C(F)(F)C(F)(F)C(F)(F)C(F)(F)F)cc(C(*)=O)c2)cc1 (repeat unit) | 137.00 |
| *Oc1ccc(OC(=O)c2cc(OCCCCCCCCCCOCC3CCCN3c3ccc([N+](=O)[O-])cc3)c(C(*)=O)cc2OCCCCCCCCCCOCC2CCCN2c2ccc([N+](=O)[O-])cc2)cc1 (repeat unit) | 30.00 |
| *Oc1ccc(OC(=O)c2cc(OCCCCCCOCC3CCCN3c3ccc([N+](=O)[O-])cc3)c(C(*)=O)cc2OCCCCCCOCC2CCCN2c2ccc([N+](=O)[O-])cc2)cc1 (repeat unit) | 56.00 |
| *Oc1ccc(OC(=O)c2cc(OCCCCCOCC3CCCN3c3ccc([N+](=O)[O-])cc3)c(C(*)=O)cc2OCCCCCOCC2CCCN2c2ccc([N+](=O)[O-])cc2)cc1 (repeat unit) | 63.00 |

| Compound | glass transition temperature [°C] |
| --- | --- |
| *Oc1ccc(OC(=O)c2ccc(-c3ccc(C(*)=O)cc3)cc2-c2ccccc2)c2ccccc12 (repeat unit) | 165.00 |
| *Oc1ccc(OC(=O)c2ccc(-c3ccc(C(*)=O)cc3)cc2-c2ccccc2)cc1-c1ccccc1 (repeat unit) | 148.00 |
| *Oc1ccc(OC(=O)c2ccc(C(*)=O)cc2)cc1C1CCCCCCC1 (repeat unit) | 213.00 |
| *Oc1ccc(OC(=O)c2ccc(C(*)=O)cc2Oc2ccc(-c3ccccc3)cc2)cc1 (repeat unit) | 117.00 |
| *Oc1ccc(OC(=O)c2ccc(C(*)=O)cc2Oc2ccc(Br)cc2)cc1 (repeat unit) | 108.00 |
| *Oc1ccc(OC(=O)c2ccc(C(*)=O)cc2Oc2ccc(Cl)cc2)cc1 (repeat unit) | 107.00 |
| *Oc1ccc(OC(=O)c2ccc(C(*)=O)cc2Sc2ccc(Cl)cc2)cc1 (repeat unit) | 140.00 |
| *Oc1ccc(OC(=O)c2ccc(C(*)=O)cc2Sc2ccc3ccccc3c2)cc1 (repeat unit) | 148.00 |
| *Oc1ccc(OC(=O)c2cccc(Oc3cccc(C(*)=O)c3)c2)cc1 (repeat unit) | 119.00 |
| *Oc1ccc(Oc2ccc(/C=N/CCCC/N=C/c3ccc(*)cc3)cc2)cc1 (repeat unit) | 105.00 |
| *Oc1ccc(Oc2ccc(/C=N/CCCCCCCCCC/N=C/c3ccc(*)cc3)cc2)cc1 (repeat unit) | 108.00 |
| *Oc1ccc(Oc2ccc(/C=N/CCCCCCCCCCCC/N=C/c3ccc(*)cc3)cc2)cc1 (repeat unit) | 118.00 |
| *Oc1ccc(Oc2ccc(/C=N/c3ccc(/N=C/c4ccc(*)cc4)cc3)cc2)cc1 (repeat unit) | 117.00 |
| *Oc1ccc(Oc2ccc(NC(=O)c3cccc(C(=O)Nc4ccc(*)cc4)c3)cc2)cc1C(C)(C)C (repeat unit) | 208.00 |
| *Oc1ccc(Oc2ccc(OC(*)=O)cc2)cc1 (repeat unit) | 118.00 |
| *Oc1ccc(Oc2ccc(OC(=O)c3ccc(C(c4ccc(C(*)=O)cc4)(C(F)(F)F)C(F)(F)F)cc3)cc2)cc1 (repeat unit) | 215.00 |
| *Oc1ccc(Oc2ccc(OC(=O)c3cccc(Oc4ccc(Oc5cccc(C(*)=O)c5)cc4)c3)cc2)cc1 (repeat unit) | 104.00 |
| *Oc1ccc(Oc2ccc(Oc3ccc(Oc4ccc(OC(=O)c5cccc(C(*)=O)c5)cc4)cc3)cc2)cc1 (repeat unit) | 134.00 |
| *Oc1ccc(Oc2cccc(*)n2)cc1 (repeat unit) | 100.00 |
| *Oc1ccc(S(=O)(=O)c2ccc(OC(=O)c3cccc(C(*)=O)c3)cc2)cc1 (repeat unit) | 249.00 |

| Compound | glass transition temperature [°C] |
| --- | --- |
| *Oc1ccc(Sc2ccc(Oc3ccc4c(=O)n5c6cc(Oc7ccc8c(c7)nc7c9ccc(*)c%10cccc(c(=O)n87)c%109)ccc6nc5c5cccc3c45)cc2)cc1 (repeat unit) | 346.00 |
| *Oc1ccc2cc(Oc3ccc(S(=O)(=O)c4ccc(Oc5ccc(C(=O)c6ccc(*)cc6)cc5)cc4)cc3)ccc2c1 (repeat unit) | 199.00 |
| *Oc1cccc(C(=O)c2ccc(Oc3ccc(C(=O)c4ccc(*)cc4)cc3)cc2)c1 (repeat unit) | 146.00 |
| *c1ccc(-c2ccc(N3C(=O)c4ccc(Oc5ccc(Oc6ccc7c(c6)C(=O)N(*)C7=O)cc5)cc4C3=O)cc2)cc1 (repeat unit) | 266.00 |
| *c1ccc(-c2ccc(N3C(=O)c4ccc(Oc5ccc(Sc6ccc(Oc7ccc8c(c7)C(=O)N(*)C8=O)cc6)cc5)cc4C3=O)cc2)cc1 (repeat unit) | 257.00 |
| *c1ccc(Oc2cc(C(C)(C)C)c(Oc3ccc(N4C(=O)c5ccc(S(=O)(=O)c6ccc7c(c6)C(=O)N(*)C7=O)cc5C4=O)cc3)cc2C(C)(C)C)cc1 (repeat unit) | 263.00 |
| *c1ccc(Oc2ccc(N3C(=O)c4ccc(Oc5ccc(Oc6ccc(Oc7ccc8c(c7)C(=O)N(*)C8=O)cc6)cc5)cc4C3=O)cc2)cc1 (repeat unit) | 215.00 |
| *c1ccc(Oc2ccc(N3C(=O)c4cccc(Oc5ccc(S(=O)(=O)c6ccc(Oc7cccc8c7C(=O)N(*)C8=O)cc6)cc5)c4C3=O)cc2)cc1 (repeat unit) | 267.00 |
| *c1ccc(Oc2ccc(Oc3ccc(N4C(=O)c5ccc(Oc6ccc(Oc7ccc(Oc8ccc9c(c8)C(=O)N(*)C9=O)cc7)cc6)cc5C4=O)cc3)cc2)cc1 (repeat unit) | 203.00 |
| *c1ccc(Oc2ccc(Oc3ccc(Oc4ccc(N5C(=O)c6ccc(Oc7ccc(Oc8ccc9c(c8)C(=O)N(*)C9=O)cc7)cc6C5=O)cc4)cc3)cc2)cc1 (repeat unit) | 210.00 |
| *c1ccc(Oc2ccc(S(=O)(=O)c3ccc(Oc4ccc(N5C(=O)c6ccc(Oc7ccc(Oc8ccc9c(c8)C(=O)N(*)C9=O)cc7)cc6C5=O)cc4)cc3)cc2)cc1 (repeat unit) | 201.00 |
| *c1ccc(Oc2ccc(Sc3ccc(Oc4ccc(N5C(=O)c6ccc(Oc7ccc(Oc8ccc(Oc9ccc%10c(c9)C(=O)N(*)C%10=O)cc8)cc7)cc6C5=O)cc4)cc3)cc2)cc1 (repeat unit) | 194.00 |
| *c1ccc(Oc2cccc(Oc3ccc(N4C(=O)c5cccc(Oc6ccc(S(=O)(=O)c7ccc(Oc8cccc9c8C(=O)N(*)C9=O)cc7)cc6)c5C4=O)cc3)c2)cc1 (repeat unit) | 230.00 |
| *c1cccc(N2C(=O)c3ccc(Oc4ccc(Oc5ccc(Oc6ccc7c(c6)C(=O)N(*)C7=O)cc5)cc4)cc3C2=O)c1 (repeat unit) | 227.00 |
| *c1cccc(N2C(=O)c3ccc(Oc4ccc(S(=O)(=O)c5ccc(Oc6ccc7c(c6)C(=O)N(*)C7=O)cc5)cc4)cc3C2=O)c1 (repeat unit) | 265.00 |
| *c1cccc(N2C(=O)c3cccc(Oc4ccc(Oc5ccc(Oc6cccc7c6C(=O)N(*)C7=O)cc5)cc4)c3C2=O)c1 (repeat unit) | 238.00 |
| *c1cccc(N2C(=O)c3cccc(Oc4ccc(S(=O)(=O)c5ccc(Oc6cccc7c6C(=O)N(*)C7=O)cc5)cc4)c3C2=O)c1 (repeat unit) | 266.00 |
| *c1cccc(S(=O)(=O)c2cccc(N3C(=O)c4ccc(Oc5ccc(S(=O)(=O)c6ccc(Oc7ccc8c(c7)C(=O)N(*)C8=O)cc6)cc5)cc4C3=O)c2)c1 (repeat unit) | 205.00 |
